Experimental data reported in article PMC6099635, “New Records of Potent In-Vitro Antidiabetic Properties of Dalbergia tonkinensis Heartwood and the Bioactivity-Guided Isolation of Active Compounds” (Molecules : A Journal of Synthetic Chemistry and Natural …, 2018).

Assays:
Test in all cases: colorimetric pNPG hydrolysis, […] nm
Rat α-glucosidase = molecular target: T1, Rat α-glucosidase; type: biochemical; conditions: pNPG substrate; 0.1 M potassium phosphate pH 7; 37 °C; 20 min pre-incubation, 60 min reaction
T1 construct: gene Si; Sigma Aldrich preparation

[1] = molecular target: T2, Rice α-glucosidase (Type 4); type: biochemical, Oryza sativa; conditions: pNPG substrate; 0.1 M potassium phosphate pH 7; 37 °C; 20 min pre-incubation, 30 min reaction
T2 construct: gene Os06g0675700

[2] = molecular target: T3, Saccharomyces cerevisiae (yeast) α-glucosidase; type: biochemical; conditions: pNPG substrate; 0.1 M potassium phosphate pH 7; 37 °C; 20 min pre-incubation, 30 min reaction
T3 construct: gene MAL12

C[C@H]1O[C@H](O[C@H]2[C@H](O)[C@@H](O)[C@@H](O[C@H]3[C@H](O)[C@@H](O)C(O)O[C@@H]3CO)O[C@@H]2CO)[C@H](O)[C@@H](O)[C@@H]1N[C@H]1C=C(CO)[C@@H](O)[C@H](O)[C@H]1O (stereo partly drawn) [acarbose, reference compound]
Inhibition Expressed as EC50 (mg/mL) / Acarbose (Rat α-glucosidase): 0.121 ± 0.001 mg/mL
Inhibition Expressed as EC50 (mg/mL) / Acarbose [1]: 0.031 ± 0.005 mg/mL
Inhibition Expressed as EC50 (mg/mL) / Acarbose [2]: 1.321 ± 0.048 mg/mL

COc1ccc(C2COc3cc(O)ccc3C2=O)c(OC)c1 (stereo not drawn) [compound 1, sativanone]
Inhibition Expressed as EC50 (mg/mL) / Sativanone (Rat α-glucosidase): 0.37 ± 0.022 mg/mL
Inhibition Expressed as EC50 (mg/mL) / Sativanone [1]: 0.81 ± 0.023 mg/mL
Inhibition Expressed as EC50 (mg/mL) / Sativanone [2]: 0.23 ± 0.012 mg/mL

COc1ccc(-c2coc3cc(O)ccc3c2=O)cc1 [compound 2, formononetin]
Inhibition Expressed as EC50 (mg/mL) / Formononetin (Rat α-glucosidase): 0.23 ± 0.037 mg/mL
Inhibition Expressed as EC50 (mg/mL) / Formononetin [1]: 0.98 ± 0.029 mg/mL
Inhibition Expressed as EC50 (mg/mL) / Formononetin [2]: 0.06 ± 0.002 mg/mL
